Experimental data taken from PubChem BioAssay (NCI).
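In this assay, cells in 96-well plates receive the compound at five concentrations for 48 hours. Endpoints are linearly interpolated between the surrounding concentrations. Here, GI50 denotes the concentration required for 50% inhibition of growth. TGI: total growth inhibition.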

Columns and labels:
Assay in all cases: growth of human tumour cells (NCI), 48 h
SN12C renal = test system: SN12C renal
MCF7 breast = test system: MCF7 breast
DU-145 prostate = test system: DU-145 prostate
SK-MEL-28 melanoma = test system: SK-MEL-28 melanoma
M14 melanoma = test system: M14 melanoma
RXF 393 renal = test system: RXF 393 renal
T-47D breast = test system: T-47D breast
NCI/ADR-RES ovarian = test system: NCI/ADR-RES ovarian
U251 CNS = test system: U251 CNS
MALME-3M melanoma = test system: MALME-3M melanoma
UACC-62 melanoma = test system: UACC-62 melanoma
COLO 205 colon = test system: COLO 205 colon
SR leukemia = test system: SR leukemia
LOX IMVI melanoma = test system: LOX IMVI melanoma
SNB-75 CNS = test system: SNB-75 CNS
MDA-MB-435 = test system: MDA-MB-435
SK-MEL-5 melanoma = test system: SK-MEL-5 melanoma
SF-295 CNS = test system: SF-295 CNS
A498 renal = test system: A498 renal
OVCAR-5 ovarian = test system: OVCAR-5 ovarian
UACC-257 melanoma = test system: UACC-257 melanoma
NCI-H460 lung = test system: NCI-H460 lung
NCI-H226 lung = test system: NCI-H226 lung
OVCAR-8 ovarian = test system: OVCAR-8 ovarian
NCI-H522 lung = test system: NCI-H522 lung
A549 NSCLC = test system: A549 NSCLC
RPMI-8226 leukemia = test system: RPMI-8226 leukemia
HOP-92 NSCLC = test system: HOP-92 NSCLC
K-562 leukemia = test system: K-562 leukemia
SK-OV-3 ovarian = test system: SK-OV-3 ovarian
SK-MEL-2 melanoma = test system: SK-MEL-2 melanoma
HS 578T breast = test system: HS 578T breast
KM12 colon = test system: KM12 colon
NCI-H23 lung = test system: NCI-H23 lung
MOLT-4 leukemia = test system: MOLT-4 leukemia
CCRF-CEM leukemia = test system: CCRF-CEM leukemia
SF-268 CNS = test system: SF-268 CNS
HCC-2998 colon = test system: HCC-2998 colon
OVCAR-3 ovarian = test system: OVCAR-3 ovarian
IGROV1 ovarian = test system: IGROV1 ovarian
BT-549 breast = test system: BT-549 breast
UO-31 renal = test system: UO-31 renal
TK-10 renal = test system: TK-10 renal
PC-3 prostate = test system: PC-3 prostate
SW-620 colon = test system: SW-620 colon
MDA-MB-231 breast = test system: MDA-MB-231 breast
SF-539 CNS = test system: SF-539 CNS
ACHN renal = test system: ACHN renal
HL-60(TB) leukemia = test system: HL-60(TB) leukemia
HCT-116 colon = test system: HCT-116 colon
CAKI-1 renal = test system: CAKI-1 renal
EKVX NSCLC = test system: EKVX NSCLC
HT29 colon = test system: HT29 colon
SNB-19 CNS = test system: SNB-19 CNS
OVCAR-4 ovarian = test system: OVCAR-4 ovarian
786-0 renal = test system: 786-0 renal
HCT-15 colon = test system: HCT-15 colon
HOP-62 NSCLC = test system: HOP-62 NSCLC
MDA-N = test system: MDA-N

## O=C(NNc1nc2cc(F)ccc2n2c(CN3CCOCC3)ccc12)c1ccccc1
SN12C renal
  GI50: 399 nM
  TGI: 2180 nM
MCF7 breast
  GI50: 219 nM
  TGI: 1310 nM
DU-145 prostate
  GI50: 358 nM
  TGI: 4780 nM
SK-MEL-28 melanoma
  GI50: 290 nM
  TGI: 1780 nM
M14 melanoma
  GI50: 173 nM
  TGI: 1260 nM
RXF 393 renal
  GI50: 363 nM
  TGI: 2060 nM
T-47D breast
  GI50: 360 nM
  TGI: 2240 nM
NCI/ADR-RES ovarian
  GI50: 211 nM
  TGI: 2370 nM
U251 CNS
  GI50: 207 nM
  TGI: 2190 nM
MALME-3M melanoma
  GI50: 379 nM
  TGI: 1810 nM
UACC-62 melanoma
  GI50: 244 nM
  TGI: 1140 nM
COLO 205 colon
  GI50: 261 nM
  TGI: 1560 nM
SR leukemia
  GI50: 63.9 nM
LOX IMVI melanoma
  GI50: 119 nM
  TGI: 1430 nM
SNB-75 CNS
  GI50: 300 nM
  TGI: 3630 nM
MDA-MB-435
  GI50: 603 nM
  TGI: 2400 nM
SK-MEL-5 melanoma
  GI50: 438 nM
  TGI: 2060 nM
SF-295 CNS
  GI50: 181 nM
  TGI: 1520 nM
A498 renal
  GI50: 495 nM
  TGI: 2260 nM
OVCAR-5 ovarian
  GI50: 474 nM
  TGI: 3450 nM
UACC-257 melanoma
  GI50: 456 nM
  TGI: 3850 nM
NCI-H460 lung
  GI50: 72.4 nM
  TGI: 1320 nM
NCI-H226 lung
  GI50: 450 nM
  TGI: 2400 nM
OVCAR-8 ovarian
  GI50: 321 nM
  TGI: 7660 nM
NCI-H522 lung
  GI50: 369 nM
  TGI: 3520 nM
A549 NSCLC
  GI50: 303 nM
  TGI: 2250 nM
RPMI-8226 leukemia
  GI50: 263 nM
  TGI: 2600 nM
HOP-92 NSCLC
  GI50: 791 nM
  TGI: 2870 nM
K-562 leukemia
  GI50: 336 nM
  TGI: 4210 nM
SK-OV-3 ovarian
  GI50: 405 nM
  TGI: 3390 nM
SK-MEL-2 melanoma
  GI50: 1040 nM
  TGI: 8060 nM
HS 578T breast
  GI50: 1510 nM
  TGI: 8050 nM
KM12 colon
  GI50: 369 nM
  TGI: 2450 nM
NCI-H23 lung
  GI50: 567 nM
  TGI: 2700 nM
MOLT-4 leukemia
  GI50: 175 nM
  TGI: 2180 nM
CCRF-CEM leukemia
  GI50: 97.8 nM
  TGI: 4440 nM
SF-268 CNS
  GI50: 243 nM
  TGI: 2690 nM
HCC-2998 colon
  GI50: 569 nM
  TGI: 3070 nM
OVCAR-3 ovarian
  GI50: 242 nM
  TGI: 1650 nM
IGROV1 ovarian
  GI50: 139 nM
  TGI: 1470 nM
BT-549 breast
  GI50: 559 nM
  TGI: 6570 nM
UO-31 renal
  GI50: 57.4 nM
  TGI: 1300 nM
TK-10 renal
  GI50: 276 nM
  TGI: 7070 nM
PC-3 prostate
  GI50: 339 nM
  TGI: 3050 nM
SW-620 colon
  GI50: 330 nM
  TGI: 2110 nM
MDA-MB-231 breast
  GI50: 443 nM
  TGI: 2450 nM
SF-539 CNS
  GI50: 273 nM
  TGI: 1390 nM
ACHN renal
  GI50: 79 nM
  TGI: 1410 nM
HL-60(TB) leukemia
  GI50: 250 nM
  TGI: 931 nM
HCT-116 colon
  GI50: 139 nM
  TGI: 1380 nM
CAKI-1 renal
  GI50: 223 nM
  TGI: 1500 nM
EKVX NSCLC
  GI50: 142 nM
  TGI: 1700 nM
HT29 colon
  GI50: 449 nM
  TGI: 7480 nM
SNB-19 CNS
  GI50: 311 nM
  TGI: 2270 nM
OVCAR-4 ovarian
  GI50: 152 nM
  TGI: 1390 nM
786-0 renal
  GI50: 305 nM
  TGI: 1980 nM
HCT-15 colon
  GI50: 57.7 nM
  TGI: 1410 nM
HOP-62 NSCLC
  GI50: 117 nM
  TGI: 4030 nM

## Cc1oc2ccccc2c(=O)c1Cn1nnc2ccccc21
SN12C renal
  TGI: > 100000 nM
MCF7 breast
  TGI: 49200 nM
DU-145 prostate
  TGI: > 100000 nM
SK-MEL-28 melanoma
  TGI: > 100000 nM
M14 melanoma
  TGI: > 100000 nM
T-47D breast
  TGI: 44200 nM
NCI/ADR-RES ovarian
  TGI: > 100000 nM
U251 CNS
  TGI: > 100000 nM
MALME-3M melanoma
  TGI: > 100000 nM
UACC-62 melanoma
  TGI: > 100000 nM
COLO 205 colon
  TGI: > 100000 nM
SR leukemia
  TGI: > 100000 nM
LOX IMVI melanoma
  TGI: > 100000 nM
SNB-75 CNS
  TGI: > 100000 nM
MDA-MB-435
  TGI: > 100000 nM
SK-MEL-5 melanoma
  TGI: 48500 nM
SF-295 CNS
  TGI: > 100000 nM
A498 renal
  TGI: > 100000 nM
OVCAR-5 ovarian
  TGI: > 100000 nM
UACC-257 melanoma
  TGI: 66900 nM
NCI-H460 lung
  TGI: > 100000 nM
NCI-H226 lung
  TGI: > 100000 nM
OVCAR-8 ovarian
  TGI: > 100000 nM
A549 NSCLC
  TGI: > 100000 nM
RPMI-8226 leukemia
  TGI: > 100000 nM
HOP-92 NSCLC
  TGI: 87400 nM
K-562 leukemia
  TGI: > 100000 nM
SK-OV-3 ovarian
  TGI: > 100000 nM
SK-MEL-2 melanoma
  TGI: > 100000 nM
HS 578T breast
  TGI: > 100000 nM
KM12 colon
  TGI: > 100000 nM
NCI-H23 lung
  TGI: > 100000 nM
MOLT-4 leukemia
  TGI: > 100000 nM
CCRF-CEM leukemia
  TGI: > 100000 nM
SF-268 CNS
  TGI: > 100000 nM
HCC-2998 colon
  TGI: > 100000 nM
MDA-N
  TGI: > 100000 nM
OVCAR-3 ovarian
  TGI: 79700 nM
UO-31 renal
  TGI: > 100000 nM
TK-10 renal
  TGI: > 100000 nM
PC-3 prostate
  TGI: > 100000 nM
SW-620 colon
  TGI: > 100000 nM
MDA-MB-231 breast
  TGI: > 100000 nM
SF-539 CNS
  TGI: > 100000 nM
ACHN renal
  TGI: > 100000 nM
HL-60(TB) leukemia
  TGI: > 100000 nM
HCT-116 colon
  TGI: > 100000 nM
EKVX NSCLC
  TGI: > 100000 nM
HT29 colon
  TGI: > 100000 nM
SNB-19 CNS
  TGI: > 100000 nM
OVCAR-4 ovarian
  TGI: > 100000 nM
786-0 renal
  TGI: > 100000 nM
HCT-15 colon
  TGI: > 100000 nM
HOP-62 NSCLC
  TGI: > 100000 nM
